The text below walks through data of patent US20130274174A1, “THERAPEUTIC COMBINATION OF DAPTOMYCIN AND PROTEIN SYNTHESIS INHIBITOR ANTIBIOTIC, AND METHODS OF USE” (priority 2011, published 2013).

The experiment concerns Staphylococcus aureus 100 (ATCC 29213). Briefly: FIC checkerboard broth microdilution, control combinations. Format: cell-based. As to conditions: ATCC29213, agent alone, repeated determinations by date. As for the experimental part: Test articles of stock solutions of daptomycin (Cubist, lot MCB2007) and TR-700 were prepared at 40 times the final target concentration in DMSO:water (1:1). DMSO was added first, the solutions were allowed to stand for 60 minutes and then the water was added. […] The final DMSO concentration was 2.5%. The final drug concentrations in the FIC assay plates were set to bracket the MIC value of each test article for each test organism, unless the strain was totally resistant to the test article.
The test organisms were originally received from clinical sources, or from the American Type Culture Collection. […] Aliquots were then frozen at −80° C.
The broth was prepared at 1.05× normal weight/volume to offset the 5% volume of the drugs in the final test plates.
Antimicrob. Agents Chemother.
These plates were used to prepare the drug “mother plates” which provided the serial drug dilutions for the drug combination plates.
The “daughter plates” were loaded with 180 μL of test medium using the Multidrop 384. Then, the Multimek 96 was used to transfer 10 μL of drug solution from each well of the drug combination mother plate to each corresponding well of the daughter plate in a single step.
In general terms: Broth dilution looks for growth in wells or tubes with falling amounts of substance.

As to `O=C(O)[C@H]1/C(=C/CO)O[C@@H]2CC(=O)N21` [Clavulanate], the MIC stood at 16 µg/mL.

A word on the MIC: it is the lowest concentration that inhibits growth of the organism.
